These results are taken from the supplement of paper PMC10307832.

Holding throughout (test): relative viability (nuclei count vs DMSO), 5 days (fraction); higher = more cells survive
Compound in assay [1]: COc1cc2/c(=N/c3ccc(Br)cc3F)nc[nH]c2cc1OCC1CCN(C)CC1 [Vandetanib] + Cc1cc(Nc2cc(N3CCN(C)CC3)nc(Sc3ccc(NC(=O)C4CC4)cc3)n2)n[nH]1 [Tozasertib] (partner 0.1 µM)
In a few lines: (§1)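 The day after seeding in 1536-well plates, lung cancer cell lines were treated by pin tool with a single drug, or with a fixed anchor-drug dose together with five library-drug doses (not always all listed) in √10 steps. After 5 days, a combined fix-and-stain solution (final 0.05% Triton X-100, 1% formaldehyde, 1 ug/ml Hoechst) was added. Nuclei counted on 4× images gave relative viability as treated counts over vehicle counts, reported as the median of duplicate plates.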

Compound in assay [2]: C#Cc1cccc(Nc2ncnc3cc(OC)c(OCCCCCCC(=O)NO)cc23)c1 [CUDC-101] + CS(=O)(=O)CCNCc1ccc(-c2ccc3ncnc(Nc4ccc(OCc5cccc(F)c5)c(Cl)c4)c3c2)o1 [Lapatinib] (partner 2 µM)
In a few lines:
as §1

Compound in assay [3]: C1=CC=C2C(=C1)N=C(S2)C(C#N)C3=NC(=NC=C3)NCCC4=CN=CC=C4 + CC(=O)c1c(C)c2cnc(Nc3ccc(N4CCNCC4)cn3)nc2n(C2CCCC2)c1=O [Palbociclib] (partner 0.5 µM)
In a few lines:
as §1

Compound in assay [4]: COc1cc2/c(=N/c3ccc(Br)cc3F)nc[nH]c2cc1OCC1CCN(C)CC1 [Vandetanib] + CCNC(=O)c1noc(-c2cc(C(C)C)c(O)cc2O)c1-c1ccc(CN2CCOCC2)cc1 [Luminespib] (partner 0.01 µM)
The procedure, abridged: as §1

Regarding UMC-11, the relative viability is 0.204 in assay [1] (first compound 0.02 µM); 0.187 in assay [1] (first compound 0.06325 µM); 0.175 in assay [1] (first compound 0.2 µM); 0.189 in assay [1] (first compound 0.6325 µM); 0.205 in assay [1] (first compound 2 µM); 1.05 in assay [2] (first compound 0.01 µM). The relative viability is 0.968 in assay [2] (first compound 0.03162 µM); 0.724 in assay [2] (first compound 0.1 µM); 0.711 in assay [2] (first compound 0.3162 µM); 0.126 in assay [2] (first compound 1 µM); 0.377 in assay [3] (first compound 0.005 µM); 0.32 in assay [3] (first compound 0.01581 µM). The relative viability in assay [3] (first compound 0.05 µM) was determined as 0.294; in assay [3] (first compound 0.1581 µM) it was 0.346; in assay [3] (first compound 0.5 µM) it was 0.31; in assay [4] (first compound 0.02 µM), 1.06; in assay [4] (first compound 0.06325 µM) it was 1.01; in assay [4] (first compound 0.2 µM), 0.225. Further, the relative viability in assay [4] (first compound 0.6325 µM) amounted to 0.998; in assay [4] (first compound 2 µM), 1.03.
